Measured values taken from US20220218679A1, “NOVEL COMPOUNDS AND PHARMACEUTICAL COMPOSITIONS THEREOF FOR THE TREATMENT OF INFLAMMATORY DISORDERS” (Galapagos NV, priority 2019, published 2022).

How the values were obtained:
mouse CIA model = test: Mouse collagen induced arthritis (CIA) model; type: in vivo, DBA1/J mice; details: 3, 10 and 30 mg/kg b.i.d., versus disease vehicle group
Method: Completed Freund's adjuvant (CFA) and incomplete Freund's adjuvant (IFA) were purchased from Difco. Bovine collagen type II (CII), lipopolysaccharide (LPS), and Enbrel was obtained from Chondrex (Isle d'Abeau, France); Sigma (P4252, L'Isle d'Abeau, France), Whyett (25 mg injectable syringe, France) Acros Organics (Palo Alto, Calif.), respectively. All other reagents used were of reagent grade and all solvents were of analytical grade.
DBA1/J mice (male, 7-8 weeks old) were obtained from Charles River Laboratories (France). Mice were kept on a 12 h light/dark cycle (07 h 00-19 h 00). Temperature was maintained at 22° C., and food and water were provided ad libitum.
5.1.3. Collagen Induced Arthritis (CIA)
One day before the experiment, CII solution (2 mg/mL) was prepared with 0.05 M AcOH and stored at 4° C. Just before the immunization, equal volumes of adjuvant […] and CII were mixed by a homogenizer in a pre-cooled glass bottle in an ice water bath. Extra adjuvant and prolonged homogenization may be required if an emulsion was not formed. […]
The therapeutic effects of the compounds were tested in the mouse CIA model. […] Body weight and clinical score, were recorded twice a week. […]
Arthritis is scored according to the method of (Khachigian, 2006; Lin et al., 2007; Nishida et al., 2004). […]
For each readout, mean and sem are calculated. […]

[1] = system: MC903 induced atopic dermatitis in mice; test: Murine prophylactic model of atopic dermatitis induced by topical application of MC903; type: in vivo, BALB/cN mice or CD1/Swiss mice; details: 10 mg/kg b.i.d., versus disease vehicle group
Source text: 5.5. Murine Prophylactic Model of Atopic Dermatitis Induced by Topical Application of MC903
Methylcellulose 0.5% was obtained from VWR (cat no. AX021233). MC903 (calcipotriol) was obtained from Tocris Bioscience (cat no. 2700/50). ProSense® 680 was obtained from PerkinElmer (cat no. NEV10003). RNAlater® was obtained from Ambion (cat no. AM7021). Imalgene® 1000 (Merial) and Rompun® 2% (Bayer) were obtained from Centravet (cat no. IMA004-6827812 and ROM001-6835444).
BALB/cN mice (female, 18-20 g body weight) or CD1/Swiss mice (female, 24-26 g body weight) were obtained from Janvier Labs (France). Mice were kept on a 12 h light/dark cycle (07:00-19:00). Temperature was maintained at 22±2° C., food and water were provided ad libitum. […]
The thickness of both ears was measured (after anaesthesia induced by isoflurane inhalation) at initiation of the study, every other day and at sacrifice using a thickness gage (Mitutoyo, Absolute Digimatic, 547-321).
Body weight was assessed at initiation of the study, every other day and at sacrifice.
On D4, mice from all groups receive ProSense® 680 probe (0.8 nmol/10 g, IP). […] Granulocyte infiltration was measured using in vivo molecular imaging (Bruker In-Vivo Xtreme imaging system, excitation wavelength: 630 nm, emission wavelength: 700 nm, acquisition time: 5 seconds). […]
For each readout, mean and sem were calculated. […]

COc1cn2nc(CCC(C)(C)O)cc2cc1NC(=O)c1cccn(C2CC2)c1=O [Compound 1, 1-cyclopropyl-N-[2-(3-hydroxy-3-methylbutyl)-6-methoxypyrazolo[1,5-a]pyridin-5-yl]-2-oxopyridine-3-carboxamide]
statistically significant effect: effect on bone erosion Larsen Score (mouse CIA model) | effect on clinical score (mouse CIA model) | effect on ear thickening at D8 [1] | effect on granulocyte infiltrate [1]
